One assay concerns the target T1, human CB2 (Homo sapiens, UniProt P34972).
T1 construct: expressed in transfected cells; host or cells: CHO cells
The assay is described as follows: Human CB2-mediated cyclic AMP (cAMP) production inhibition assay. Conditions: 30 nM test substance, human CB2-expressing CHO cells, forskolin 0.5 μM, 30 minutes at room temperature; for inhibition at 0.03 µM: CHO, read-out: Inh (%): inhibitory rate of cAMP increase. The assay is classed as cell-based. How it is done:
The present test was performed using CHO cells expressing human CB2 (“Molecular Pharmacology”, 1995, vol. 48, p. 443-450).
A suspension of human CB2-expressing CHO cells (2.5×10^3/mL), and an assay medium added with a test substance and forskolin (final concentration 0.5 μM) were mixed in the equivalent amounts, and incubated at room temperature for 30 minutes. Then, the cAMP concentration in the cell lysis solution obtained by the addition of a 0.6% Triton X-100 solution was measured using a cAMP kit (manufactured by Cisbio international). The assay medium includes an α-MEM medium manufactured by Invitrogen, supplemented with 0.02% CHAPS, 1 mM isobutylmethyl xanthine, and 0.5 mg/mL bovine serum albumin. As the cAMP concentration in the cell suspension without the addition of forskolin was set as a cAMP increase rate of 0% and the cAMP concentration in the cell suspension with the addition of forskolin was set as a cAMP increase rate of 100%, the inhibitory rate of the intracellular cAMP increase at 30 nM test substance was determined.
In the table, Ex indicates Example Compound number below, and Inh indicates an inhibitory rate of cAMP increase.

Assay [1] has as its system adjuvant-induced arthritis rats. The assay is described as follows: Inhibitory effect on hind paw weight distribution in adjuvant-induced arthritis rats. The class given is in vivo. The following applies: orally administered, female Lewis rats. How it is done: For the experiment, female Lewis rats (7-8 week old) were used. 50 μL of inactivated Mycobacterium tuberculosis H37 Ra (manufactured by DIFCO) suspended with liquid paraffin to 10 mg/mL was administered subcutaneously into the right hindlimb footpad. The test substance was orally administered next day, the weights of the left and right hind paws after an arbitrary time were measured using Incapasitance Tester (manufactured by Columbus Instruments), and the weight distribution between left and right was calculated. As the weight distribution of the group administered with the vehicle was set as the inhibitory rate of 0% and the weight distribution of the normal group was set as the inhibitory rate of 100%, the inhibitory rate of the test substance was calculated.
In the table, Ex indicates Example Compound number below, Inh indicates an inhibitory rate of the weight distribution, and the description after to @ means the administration amount.

Results on 16 compounds are retold here after patent publication US8524727B2, “Pyrimidine compound” (Astellas Pharma Inc., priority 2009, dated 2013).

T1 sequence (P34972 whole entry): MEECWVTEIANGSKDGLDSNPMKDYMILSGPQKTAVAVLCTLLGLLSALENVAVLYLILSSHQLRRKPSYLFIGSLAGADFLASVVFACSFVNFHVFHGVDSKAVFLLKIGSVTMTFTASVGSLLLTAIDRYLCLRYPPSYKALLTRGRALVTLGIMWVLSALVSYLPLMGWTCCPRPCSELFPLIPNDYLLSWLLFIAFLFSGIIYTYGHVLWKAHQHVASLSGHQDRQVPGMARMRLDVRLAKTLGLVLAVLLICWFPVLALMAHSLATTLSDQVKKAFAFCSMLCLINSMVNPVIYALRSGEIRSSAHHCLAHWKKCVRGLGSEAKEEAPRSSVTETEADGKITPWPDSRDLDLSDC

For `O=C(c1cnc(NC23CC4CC(CC(C4)C2)C3)nc1C(F)(F)F)N1CCC(F)(F)CC1` [Example 45], the inhibition at 0.03 µM at human CB2 worked out at 79%. For `CC1(C)CCN(c2ncc(C(=O)N3CCS(=O)(=O)CC3)c(C(F)(F)F)n2)c2ccccc21` [Example 55], the inhibition at 0.03 µM at human CB2 worked out at 63%. Regarding `CC(C)c1nc(N[C@@H]2C[C@H]3CC[C@@H]2C3)ncc1C(=O)N1CCOCC1` [Example 64], the “Inh (%): inhibitory rate of cAMP increase” value on human CB2 is 85%. Moreover, the “Inh (%): inhibitory rate of the weight distribution” value in assay [1] (0.1 mpk) is 52@0.1 mpk %. As to `O=C(c1cnc(N[C@@H]2C[C@H]3CC[C@@H]2C3)nc1C1CC1)N1CCS(=O)(=O)CC1` [Example 67], on human CB2, the inhibition at 0.03 µM was found to be 76%.

On to `CC(C)(C)c1nc(N[C@@H]2C[C@H]3CC[C@@H]2C3)ncc1C(=O)N1CCOCC1` [Example 72], for which the inhibition at 0.03 µM on human CB2 was found to be 99%. In assay [1] (0.1 mpk), the “Inh (%): inhibitory rate of the weight distribution” value is 40@0.1 mpk %. For the compound `CC(C)c1nc(N[C@H]2C[C@@H]3CC[C@H]2C3)ncc1C(=O)N1CCOCC1` [Example 79], on human CB2, the inhibition at 0.03 µM was determined as 74%. Consider `CC(C)c1nc(N[C@@H]2C[C@H]3CC[C@@H]2C3)ncc1C(=O)N1CCOCC1` [Example 83], for which, on human CB2, the inhibition at 0.03 µM was found to be 84%. The same measure, in the same setting: the same measure for `O=C(c1cnc(NC23CC4CC(CC(O)(C4)C2)C3)nc1C(F)(F)F)N1CC(F)(F)C(F)(F)C1` [Example 88]: 76%. Turning to `O=C(c1cnc(N[C@@H]2C[C@H]3CC[C@@H]2C3)nc1C(F)(F)F)N1CCS(=O)(=O)CC1` [Example 103], the inhibition at 0.03 µM on human CB2 was 67%. Moreover, the “Inh (%): inhibitory rate of the weight distribution” value in assay [1] (0.3 mpk) is reported as 41@0.3 mpk %. In the case of `CC1(C)[C@@H]2CC[C@@]1(C)[C@@H](Nc1ncc(C(=O)N3CCS(=O)(=O)CC3)c(C(F)(F)F)n1)C2` [Example 106], the inhibition at 0.03 µM at human CB2 is 74%. For the compound `O=C(c1cnc(NC23CC4(F)CC(F)(CC(F)(C4)C2)C3)nc1C(F)(F)F)N1CCS(=O)(=O)CC1` [Example 109], the inhibition at 0.03 µM at human CB2 was 80%. The “Inh (%): inhibitory rate of the weight distribution” value in assay [1] (0.3 mpk) is reported as 35@0.3 mpk %.

As to `O=C(c1cnc(NC23CCC(CC2)CC3)nc1C(F)(F)F)N1CCS(=O)(=O)CC1` [Example 122], the inhibition at 0.03 µM at human CB2 was 70%. Further, the “Inh (%): inhibitory rate of the weight distribution” value in assay [1] (0.1 mpk) is reported as 45@0.1 mpk %. On to `O=C(c1cnc(N[C@@H]2C[C@H]3CC[C@@H]2C3)nc1C(F)(F)F)N1CCS(=O)(=O)CC1` [Example 133], for which the “Inh (%): inhibitory rate of cAMP increase” value on human CB2 stood at 80%. Take `O=C(c1cnc(N[C@H]2C[C@@H]3CC[C@H]2C3)nc1C(F)(F)F)N1CCS(=O)(=O)CC1` [Example 138]: on human CB2, the inhibition at 0.03 µM turned out to be 49%. Same read-out and setting: the value for `O=C(c1cnc(NC23CC4CC(CC(C4)C2)C3)nc1C(F)(F)F)N1CCOCC1` [Example 143] was 70%; that for `FC1(F)CCN(Cc2cnc(N[C@@H]3C[C@H]4CC[C@@H]3C4)nc2C(F)(F)F)CC1` [Example 161] was 75%.
